The values that follow come from patent US20150329918A1, “JAGGED1 AS A MARKER AND THERAPEUTIC TARGET FOR BREAST CANCER BONE METASTASIS” (The Trustees of Princeton University, priority 2011, published 2015).

The test system of test [1] is Notch target genes (Hes1, Hey1, HeyL and TGFβ1). The experiment in a line: qRT-PCR of Notch target genes in MC3T3-E1 osteoblasts FACS-separated from cocultures. It is filed as cell-based, mouse. To be noted: osteoblasts FACS-separated from JAG1 OE coculture; FIG. 7B. As for the experimental part:
For gene expression analysis, MC3T3-E1 cells were grown to confluence in 10 cm culture dishes. The 2×10^5 GFP+ control or JAG1 OE cells were seeded onto the plate in osteoblast media. Cell sorting was performed to purify the GFP-negative MC3T3-E1 osteoblasts 5 days after initial coculture. RNA from FACS-separated MC3T3-E1 cells was collected in RLT lysis buffer, extracted with RNeasy Mini Kit (QIAGEN), and subjected to quantitative RT-PCR.
(§1) RNA from in vitro cultured cells or flow cytometry-separated cells was collected in RLT lysis buffer and extracted with RNeasy mini kit (Qiagen). RNA extraction from in vivo tissue samples was performed using Trizol (Invitrogen) according to the manufacturer's protocol. cDNA synthesis of RNA was performed using Superscript III First-Strand (Invitrogen). Quantitative RT-PCR was performed using Power Syber Green PCR Master Mix (Applied Biosystems) with the ABI Prism 7900HT thermocycler (Applied Biosystems) according to the manufacturer's protocol. A standard curve for each gene was generated by serial dilutions of a standard. Values were then normalized by the amount of GAPDH or β-actin in each sample. For in vivo samples, species-specific primers were employed for gene expression analysis in the tumor compartment (human) versus stroma compartment (mouse).
For orientation: In qPCR the cycle at which signal appears reflects the starting amount.

The subject of the next test is MC3T3-E1 osteoblasts. The experiment in a line: Microarray gene expression profiling of FACS-separated MC3T3-E1 osteoblasts. Format: cell-based, mouse. To be noted: FIG. 11B. The text has this:
For microarray analysis the quality of the FACS-separated MC3T3-E1 RNA samples was monitored using the 2100 bioanalyzer (Agilent) before gene expression profiling with the Agilent mouse […] microarrays. To find genes regulated by JAGGED1 and MRK-003 in osteoblasts, expression data of MC3T3-E1 under the indicated coculture and treatment conditions were generated and normalized by the array median, and probes were filtered by the expression levels. Probes with >2-fold changes in MC3T3-E1 cells cocultured with JAG1 OE tumor cells relative to vector-control tumor cells were identified as the regulated genes.

Test [2] has as its system pre-osteoclast Raw 264.7 cells. The test can be described thus: Osteoclastogenesis coculture assay (TRAP staining). It is filed as cell-based, mouse. As for the experimental part:
After seeding 5×10^4 control or JAG1 OE tumor cells/well into 12-well plates, murine pre-osteoclast Raw 264.7 (2×10^5 cells/well) or MOCP5 (5×10^5 cells/well) cells in media containing 30 ng/ml RANKL and DMSO or 1 μM MRK-003 were added the next day. Media were changed every 2 days. TRAP staining was performed on day 6 using a leukocyte acid phosphatase kit (Sigma). TRAP^+-multinucleated cells were scored as mature osteoclasts. The number of nuclei per osteoclast was quantified using TRAP-stained images. Mouse specific qRT-PCR primers were used to selectively quantify Raw264.7 osteoclast gene expression levels after 6 days of coculture (see Table 1 below).
For primary osteoclast coculture assays, bone marrow cells were flushed out from femora and tibiae of 4- to 6-week-old wild-type FVB mice and plated in basal culture medium overnight. The next day, nonadherent cells were added at 1×10^6/well to 12-well plates that were previously seeded with either control or JAG1 OE tumor cells supplemented with 50 ng/ml RANKL and 50 ng/ml M-CSF. Medium was changed every 3 days. TRAP staining and scoring were performed on days 10-12.

Test [3] has as its system Notch target genes and IL-6. The test can be described thus: Species-specific qRT-PCR of the stromal compartment of bone metastases. Format: in vivo. To be noted: mouse-specific qRT-PCR; FIG. 17A. The procedure:
as §1

A further test deals with gamma-secretase. Particulars: Lewis et al., 2007; cited from earlier work.
A further test deals with Notch. Particulars: Tammam et al., 2009; cited from earlier work.

On to `O=S1(=O)N[C@@]2(CN1CC(F)(F)F)[C@@H]1CC[C@H]2Cc2ccc(/C=C/CN3CCC(C(F)(F)F)CC3)cc2C1` [MRK-003], for which, in test [1], the “Notch target genes (Hes1, Hey1, HeyL and TGFβ1) mRNA in osteoblasts” value is “downregulated”. For the same compound, the “123 genes activated at least 3-fold in MC3T3-E1 by JAG1 OE coculture” value in the test on MC3T3-E1 osteoblasts was “concomitantly downregulated”. Moreover, the “TRAP+ osteoclasts in JAG1 OE cocultures” value in test [2] (15-fold increase by JAG1 OE relative to controls, 1 μM MRK-003, FIG. 15A) is “essentially abolished”. In addition, in test [2] (JAG1 OE cocultures), the “mRNA expression of osteoclast differentiation markers in Raw 264.7 cells” value is recorded as “suppressed”. The “osteoclast size and number of nuclei” value in test [2] (cocultures with Raw 264.7, FIG. 15C) is given as “smaller osteoclasts with fewer nuclei”. Moreover, in test [2] (treatment 2 days after seeding, FIG. 15B), the “Acp5 (mouse gene encoding TRAP) mRNA levels, delayed initiation of treatment (Late)” value is on record as “failed to fully rescue”. Moreover, the “expression levels of Notch target genes and IL-6 in the stromal compartment of bone metastases” value in test [3] is on record as “significantly reduced”. In addition, the “potency inhibiting gamma-secretase-mediated cleavage of Notch to NICD” value with gamma-secretase is listed as “sub-nanomolar”. Besides, the “duration of target engagement sufficient to induce potent Notch inhibition” value with Notch is 48 h.
